According to US9920063B2, “Melampomagnolide B derivatives” (Board of Trustees of the University of Arkansas, priority 2013, dated 2018):
Read-outs that look alike come from different tables or passages of the source.

Columns and labels:
AML 052308 cells [1] = experiment: Antileukemic activity against AML 052308 cells in culture
Procedure: (§1) For each compound, in vitro cell culture studies were performed in which a range of concentrations (0.25-20 μM) was tested for cytotoxicity against leukemia cell lines, primary leukemia specimens and normal bone marrow controls.

AML 052308 cells [2] = test system: AML 052308 cells
Procedure: as §1

Compound: C=C1C(=O)O[C@H]2[C@H]1CC/C(COC(=O)c1cc3ccccc3[nH]1)=C\CC[C@@]1(C)O[C@@H]21 [BS-1-28]
- CC50 (SK-OV-3): 11.7 µM
- Percent Growth (SK-OV-3; SK-OV-3, Log10 Concentration −4.0): −86%
- Percent Growth (SK-OV-3; SK-OV-3, Log10 Concentration −5.0): −47%
- Percent Growth (SK-OV-3; SK-OV-3, Log10 Concentration −6.0): 77%
- Percent Growth (SK-OV-3; SK-OV-3, Log10 Concentration −7.0): 90%
- Percent Growth (SK-OV-3; SK-OV-3, Log10 Concentration −8.0): 82%
- GI50 (SK-OV-3; SK-OV-3, NCI five dose): 1.65 µM
- TGI (SK-OV-3; SK-OV-3, NCI five dose): 4.47E−6
- CC50 (MOLT-4): > 100 µM
- Percent Growth (MOLT-4; MOLT-4, Log10 Concentration −4.0): −32%
- Percent Growth (MOLT-4; MOLT-4, Log10 Concentration −5.0): −3%
- Percent Growth (MOLT-4; MOLT-4, Log10 Concentration −6.0): 62%
- Percent Growth (MOLT-4; MOLT-4, Log10 Concentration −7.0): 103%
- Percent Growth (MOLT-4; MOLT-4, Log10 Concentration −8.0): 105%
- GI50 (MOLT-4; MOLT-4, NCI five dose): 1.51 µM
- TGI (MOLT-4; MOLT-4, NCI five dose): 8.89E−6
- CC50 (SF-295): 12 µM
- Percent Growth (SF-295; SF-295, Log10 Concentration −4.0): −95%
- Percent Growth (SF-295; SF-295, Log10 Concentration −5.0): .46%
- Percent Growth (SF-295; SF-295, Log10 Concentration −6.0): 79%
- Percent Growth (SF-295; SF-295, Log10 Concentration −7.0): 89%
- Percent Growth (SF-295; SF-295, Log10 Concentration −8.0): 85%
- GI50 (SF-295; SF-295, NCI five dose): 1.71 µM
- TGI (SF-295; SF-295, NCI five dose): 4.28E−6
- CC50 (NCI-H23): 7.72 µM
- Percent Growth (NCI-H23; NCI-H23, Log10 Concentration −4.0): −84%
- Percent Growth (NCI-H23; NCI-H23, Log10 Concentration −5.0): −67%
- Percent Growth (NCI-H23; NCI-H23, Log10 Concentration −6.0): 85%
- Percent Growth (NCI-H23; NCI-H23, Log10 Concentration −7.0): 96%
- Percent Growth (NCI-H23; NCI-H23, Log10 Concentration −8.0): 96%
- GI50 (NCI-H23; NCI-H23, NCI five dose): 1.69 µM
- TGI (NCI-H23; NCI-H23, NCI five dose): 3.62E−6
- Fold more potent than parthenolide (AML 052308 cells [1]; AML 052308 cells): around 3 fold
- EC50 (AML 052308 cells [1]; AML 052308 cells in culture): 2.2 µM
- CC50 (A498): 5.63 µM
- Percent Growth (A498; A498, Log10 Concentration −4.0): −95%
- Percent Growth (A498; A498, Log10 Concentration −5.0): −99%
- Percent Growth (A498; A498, Log10 Concentration −6.0): 97%
- Percent Growth (A498; A498, Log10 Concentration −7.0): 102%
- Percent Growth (A498; A498, Log10 Concentration −8.0): 110%
- GI50 (A498; A498, NCI five dose): 1.74 µM
- TGI (A498; A498, NCI five dose): 3.43E−6
- CC50 (TK-10): 5.39 µM
- Percent Growth (TK-10; TK-10, Log10 Concentration −4.0): −98%
- Percent Growth (TK-10; TK-10, Log10 Concentration −5.0): −96%
- Percent Growth (TK-10; TK-10, Log10 Concentration −6.0): 74%
- Percent Growth (TK-10; TK-10, Log10 Concentration −7.0): 117%
- Percent Growth (TK-10; TK-10, Log10 Concentration −8.0): 95%
- GI50 (TK-10; TK-10, NCI five dose): 1.39 µM
- TGI (TK-10; TK-10, NCI five dose): 2.73E−6
- CC50 (NCI-H226): 7.01 µM
- Percent Growth (NCI-H226; NCI-H226, Log10 Concentration −4.0): −71%
- Percent Growth (NCI-H226; NCI-H226, Log10 Concentration −5.0): −73%
- Percent Growth (NCI-H226; NCI-H226, Log10 Concentration −6.0): 74%
- Percent Growth (NCI-H226; NCI-H226, Log10 Concentration −7.0): 88%
- Percent Growth (NCI-H226; NCI-H226, Log10 Concentration −8.0): 92%
- GI50 (NCI-H226; NCI-H226, NCI five dose): 1.47 µM
- TGI (NCI-H226; NCI-H226, NCI five dose): 3.21E−6
- CC50 (HCT-15): 2.43 µM
- Percent Growth (HCT-15; HCT-15, Log10 Concentration −4.0): −82%
- Percent Growth (HCT-15; HCT-15, Log10 Concentration −5.0): −64%
- Percent Growth (HCT-15; HCT-15, Log10 Concentration −6.0): −41%
- Percent Growth (HCT-15; HCT-15, Log10 Concentration −7.0): 94%
- Percent Growth (HCT-15; HCT-15, Log10 Concentration −8.0): 93%
- GI50 (HCT-15; HCT-15, NCI five dose): 0.211 µM
- TGI (HCT-15; HCT-15, NCI five dose): 4.95E−7
- CC50 (U251): 8.68 µM
- Percent Growth (U251; U251, Log10 Concentration −4.0): −74%
- Percent Growth (U251; U251, Log10 Concentration −5.0): −59%
- Percent Growth (U251; U251, Log10 Concentration −6.0): 92%
- Percent Growth (U251; U251, Log10 Concentration −7.0): 96%
- Percent Growth (U251; U251, Log10 Concentration −8.0): 98%
- GI50 (U251; U251, NCI five dose): 1.69 µM
- TGI (U251; U251, NCI five dose): 4.06E−6
- CC50 (KM12): 15.6 µM
- Percent Growth (KM12; KM12, Log10 Concentration −4.0): −82%
- Percent Growth (KM12; KM12, Log10 Concentration −5.0): −42%
- Percent Growth (KM12; KM12, Log10 Concentration −6.0): 92%
- Percent Growth (KM12; KM12, Log10 Concentration −7.0): 96%
- Percent Growth (KM12; KM12, Log10 Concentration −8.0): 93%
- GI50 (KM12; KM12, NCI five dose): 2.05 µM
- TGI (KM12; KM12, NCI five dose): 4.84E−6
- CC50 (HT29): 5.97 µM
- Percent Growth (HT29; HT29, Log10 Concentration −4.0): −80%
- Percent Growth (HT29; HT29, Log10 Concentration −5.0): −57%
- Percent Growth (HT29; HT29, Log10 Concentration −6.0): −25%
- Percent Growth (HT29; HT29, Log10 Concentration −7.0): 109%
- Percent Growth (HT29; HT29, Log10 Concentration −8.0): 103%
- GI50 (HT29; HT29, NCI five dose): 0.276 µM
- TGI (HT29; HT29, NCI five dose): 6.51E−7
- CC50 (A549/ATCC): 59.3 µM
- Percent Growth (A549/ATCC; A549/ATCC, Log10 Concentration −4.0): −53%
- Percent Growth (A549/ATCC; A549/ATCC, Log10 Concentration −5.0): −41%
- Percent Growth (A549/ATCC; A549/ATCC, Log10 Concentration −6.0): 92%
- Percent Growth (A549/ATCC; A549/ATCC, Log10 Concentration −7.0): 96%
- Percent Growth (A549/ATCC; A549/ATCC, Log10 Concentration −8.0): 91%
- GI50 (A549/ATCC; A549/ATCC, NCI five dose): 2.06 µM
- TGI (A549/ATCC; A549/ATCC, NCI five dose): 4.90E−6
- CC50 (M14): 5.76 µM
- Percent Growth (M14; M14, Log10 Concentration −4.0): −92%
- Percent Growth (M14; M14, Log10 Concentration −5.0): −80%
- Percent Growth (M14; M14, Log10 Concentration −6.0): 46%
- Percent Growth (M14; M14, Log10 Concentration −7.0): 87%
- Percent Growth (M14; M14, Log10 Concentration −8.0): 88%
- GI50 (M14; M14, NCI five dose): 0.814 µM
- TGI (M14; M14, NCI five dose): 2.32E−6
- CC50 (K-562): > 100 µM
- Percent Growth (K-562; K-562, Log10 Concentration −4.0): −24%
- Percent Growth (K-562; K-562, Log10 Concentration −5.0): −1%
- Percent Growth (K-562; K-562, Log10 Concentration −6.0): 5%
- Percent Growth (K-562; K-562, Log10 Concentration −7.0): 98%
- Percent Growth (K-562; K-562, Log10 Concentration −8.0): 100%
- GI50 (K-562; K-562, NCI five dose): 0.327 µM
- TGI (K-562; K-562, NCI five dose): 5.79E−6
- Fold more cytotoxic than MMB (AML 052308 cells [2]): around 7 fold
- CC50 (NCI/ADR-RES): > 100 µM
- Percent Growth (NCI/ADR-RES; NCl/ADR-RES, Log10 Concentration −4.0): −43%
- Percent Growth (NCI/ADR-RES; NCl/ADR-RES, Log10 Concentration −5.0): −2%
- Percent Growth (NCI/ADR-RES; NCl/ADR-RES, Log10 Concentration −6.0): 77%
- Percent Growth (NCI/ADR-RES; NCl/ADR-RES, Log10 Concentration −7.0): 100%
- Percent Growth (NCI/ADR-RES; NCl/ADR-RES, Log10 Concentration −8.0): 99%
- GI50 (NCI/ADR-RES; NCl/ADR-RES, NCI five dose): 2.2 µM
- TGI (NCI/ADR-RES; NCl/ADR-RES, NCI five dose): 9.42E−6
- CC50 (RXF 393): 6.23 µM
- Percent Growth (RXF 393; RXF 393, Log10 Concentration −4.0): −65%
- Percent Growth (RXF 393; RXF 393, Log10 Concentration −5.0): −77%
- Percent Growth (RXF 393; RXF 393, Log10 Concentration −6.0): 54%
- Percent Growth (RXF 393; RXF 393, Log10 Concentration −7.0): 85%
- Percent Growth (RXF 393; RXF 393, Log10 Concentration −8.0): 73%
- GI50 (RXF 393; RXF 393, NCI five dose): 1.07 µM
- TGI (RXF 393; RXF 393, NCI five dose): 2.58E−6
- CC50 (SR): > 100 µM
- Percent Growth (SR; SR, Log10 Concentration −4.0): −39%
- Percent Growth (SR; SR, Log10 Concentration −5.0): −28%
- Percent Growth (SR; SR, Log10 Concentration −6.0): 53%
- Percent Growth (SR; SR, Log10 Concentration −7.0): 98%
- Percent Growth (SR; SR, Log10 Concentration −8.0): 162%
- GI50 (SR; SR, NCI five dose): 1.08 µM
- TGI (SR; SR, NCI five dose): 4.51E−6
